Values after ≈ are worked out from the molar mass of the structure shown.
Legend:
[1] = target: T1, FLAG-tagged hTSLP bound to His-tagged hTSLPR (Homo sapiens, UniProt Q969D9); experiment: Pull-down assay, His-tagged hTSLPR and FLAG-tagged hTSLP, Western blotting; type: binding; conditions: compound at 0, 10, 50 and 100 μM
T1 construct: human TSLP28–159 with thrombin cleavage site at C-terminus; thrombin cleavage site (C); 8xHis (from vector pAB-bee-8xHis) (C, cleaved yes); made in house; host or cells: Trichoplusia ni High-Five cells, baculovirus (secreted)

[2] = tested on: STAT5 phosphorylation in hTSLP-stimulated HMC-1 cells; experiment: STAT5 assay (STAT5 phosphorylation, flow cytometry); type: cell-based, human
Method: (§1) HMC-1 cells were obtained from the Department of Food Technology and Inflammatory Disease Research Center (Hoseo University, Asan, Chungnam, Korea). Cells were cultured in Iscove’s modified Dulbecco’s medium (IMDM; Hyclone Laboratories Inc, USA) supplemented with 10% FBS and 1% Penicillin-streptomycin (PS; Gibco Industries Inc, USA) and incubated at 37 °C under humidified atmosphere of 95% air and 5% CO2. Recombinant hTSLP was purchased from R&D Systems (Minneapolis, USA).
Intracellular phospho-STAT5 (pSTAT5) staining method was based on the protocol obtained from the laboratory of Susan Kaech, Department of Immunobiology, Yale University School of Medicine (New Haven, Connecticut, USA). Briefly, HMC-1 cells were seeded in 96-well U-bottom plate at a density of 1 × 10^7 cells/mL and stimulated with 100 ng/mL recombinant hTSLP alone or with 1 for 30 min. After stimulation, cells were fixed with BD Cytofix/Cytoperm (BD Biosciences, USA) solution for 10 min. Fixed cells were then permeabilized with ice-cold methanol for 30 min, and intracellular pSTAT5 was stained with Alexa Fluor 647 mouse anti-STAT5 (pY694; BD Biosciences, USA) (1:10 dilution in FACS buffer) for 30 min. Stained cells were further fixed with BD Cytofix/Cytoperm solution for 10 min and re-suspended in FACS buffer for flow cytometry analysis. Cells were analyzed by a BD LSR Fortessa Flow cytometry (BD Biosciences, USA). FACS data were analyzed using FlowJo software Ver 9. 7. 6 (Tree Star Inc., USA).

[3] = tested on: pSTAT5 in TSLP-stimulated HMC-1 cells; experiment: Western blot analysis of STAT5 phosphorylation; type: cell-based, human; conditions: HMC-1 cells pretreated, TSLP 20 ng/mL for 2 h
Method: as §1
[…] Activated cells were lysed and separated by 10% sodium dodecyl sulfate-polyacrylamide gel electrophoresis (SDS-PAGE). After electrophoresis, proteins were transferred to nitrocellulose membranes. The membranes were blocked, incubated with primary antibodies (1:700 dilution in PBS with 0.05% Tween-20), and developed using peroxidase-conjugated secondary antibodies (1:3000 dilution in PBS with 0.05% Tween-20). Proteins were visualized by enhanced chemiluminescence (Amersham Bioseciences, Piscataway, NJ, USA) according to the manufacturer’s instructions.

[4] = Kinetic aqueous solubility; type: physicochemical; conditions: 0.1 M potassium phosphate buffer, kinetic from dmso stock, PBS / phosphate buffer pH 7.4
Method: In brief, 10 mM stock solution of tested compounds was prepared in DMSO. 25 μL of the stock solution was added to a 1-mL uniprep vial containing 475 μL of 0.1 M potassium phosphate buffer (pH 7.4), and was shaken at 800 rpm for 90 min at room temperature. Following shaking, the mixture was filtered by slowly pressing the upper tube of the 1 mL Mini-Uniprep^TM filter (PTFE membrane, 0.45 μm). 250 μL of the filtrate solution was then transferred to a HPLC vial containing equal volume of acetonitrile.

[5] = tested on: HDM-challenged mice; experiment: HDM-induced mouse model of allergic airway inflammation; type: in vivo; conditions: 1 (200 μg/mL) on day 4, 6 and 8; analysis on day 11
Method: Approximately 1 × 10^6 CD4 T cells from DO11.10 mice were transferred to naïve BALB/c mice intravenously. The following day, mice were challenged with a mixture of HDM (50 μg of Dermatophagoides farinae and Dermatophagoides pteronyssinus each; Greer Laboratories, Inc., USA) and 100 μg of OVA (Sigma-Aldrich Co., USA) for three days via the intranasal route. Mice were treated with 1 (200 μg) or PBS intraperitoneally three times every other day starting from […] post-challenge based on previous report. Allergen-challenged mice were sacrificed on day 11 post-challenge. […] The total cell number was counted using a hemocytometer. Leukocytes were transferred to glass slides by Cytospin (Thermo Scientific, USA) at 2,800 rpm for 5 min, and stained with Diff-Quick staining (Sysmex Corporation, Japan). Flow cytometry analysis: […] Cells were stained with anti-CD4 FITC (RM4-5, Biolegend Inc., USA), anti-CD127 PE/Cy7 (A7R34, Biolegend Inc., USA), anti-CD62L APC/Cy7 (MEL14, Biolegend Inc., USA), anti-CD27 PE (LG.7F9, eBioscience Inc., USA), and anti-DO11.10APC (KJ1-26, eBioscience Inc., USA) antibodies for 30 min. Stained cells were examined by flow cytometry using LSR Fortessa ^TM. Data were analyzed using FlowJo software Ver 9.7.6.

[6] = tested on: OVA-sensitized and challenged mice; experiment: OVA-induced mouse model of allergic airway inflammation; type: in vivo
Method: Sensitization and airway challenge: For initial sensitization, BALB/c mice were administered intraperitoneally on day 0 with 20 μg of OVA emulsified in 200 μL of sterile PBS containing 1 mg of aluminum hydroxide adjuvant (Imject® Alum, Thermofisher, Korea). On day 14, the mice were boosted with the same allergen by IP injection. […] The mice were sacrificed at the indicated time points and BAL was performed. […] The control group received vehicle only. BAL: Immediately after sacrifice, lungs were lavaged as described above. Total leukocyte numbers were counted. Differential cell counts were performed by counting at least 200 cells on cytocentrifuged samples stained with Diff-Quick solution.

[7] = target: T2, hTSLP (Homo sapiens, UniProt Q969D9); experiment: 1D and CPMG relaxation-edited NMR ligand binding; conditions: 1 at 100 μM, PBS buffer condition
T2 construct: human TSLP28–159 with thrombin cleavage site at C-terminus; thrombin cleavage site (C); 8xHis (from vector pAB-bee-8xHis) (C, cleaved yes); made in house; host or cells: Trichoplusia ni High-Five cells, baculovirus (secreted)

[8] = tested on: carbonic anhydrase; experiment: 1D and CPMG relaxation-edited NMR ligand binding; conditions: 1 at 100 μM, 2.5 μM carbonic anhydrase
Method: (§2) All spectra were measured at 283, 291, and 298 K. Data processing and analysis were conducted using TopSpin 3.1 program (Bruker, Germany). One-dimensional (1D) relaxation-edited experiments were performed using the method previously described by Hadjuk et al.[23]. We used CPMG pulse train with a pre-acquisition delay of 1.8 s, a 2 ms delay for dephasing and rephrasing in spin echo, and a total spin-lock time of 400 ms. The data were collected using a spectral width of 9,615 Hz and 128 scans.

[9] = target: T3, hTSLPR (Homo sapiens, UniProt Q9HC73); experiment: 1D and CPMG relaxation-edited NMR ligand binding; conditions: 1 at 100 μM, 2.5 μM hTSLPR
T3 construct: human TSLPR26–217 with C-terminal octa-histidine tag (hTSLPR-His); 8xHis (C); made in house; host or cells: Trichoplusia ni High-Five cells, baculovirus (secreted)
T3 sequence (Q9HC73 26-217): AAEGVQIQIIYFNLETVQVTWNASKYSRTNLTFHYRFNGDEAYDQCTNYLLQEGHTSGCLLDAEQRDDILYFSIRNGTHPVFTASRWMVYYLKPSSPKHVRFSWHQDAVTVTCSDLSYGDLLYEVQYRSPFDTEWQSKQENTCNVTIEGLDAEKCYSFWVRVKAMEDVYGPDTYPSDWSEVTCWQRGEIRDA
Method: as §2

[10] = tested on: ovalbumin (OVA)-treated mice; conditions: cited from earlier work
[11] = tested on: house dust mite (HDM)-challenged mice; conditions: cited from earlier work

T2 sequence (Q969D9 28-159): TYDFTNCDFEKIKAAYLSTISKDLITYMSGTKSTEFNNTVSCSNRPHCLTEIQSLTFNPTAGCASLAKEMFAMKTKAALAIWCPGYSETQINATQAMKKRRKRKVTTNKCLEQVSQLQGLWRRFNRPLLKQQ
T1 sequence (Q969D9 28-159): as above

O=c1cc(-c2ccccc2)oc2cc(O)c(O)c(O)c12 [Compound 1, baicalein]
amount of FLAG-tagged hTSLP bound to His-tagged hTSLPR [1]: reduced in a dose-dependent manner | STAT5 phosphorylation % ([2]; 3 µM): 65.7% | STAT5 phosphorylation % ([2]; 10 μM): 61.6% | hTSLP inhibitory activity in the in vitro STAT5 assay (in words) ([2]; HMC-1 cells, hTSLP 100 ng/mL, 30 min, compound 1 at 3 or 10 μM): inhibited | inhibition of STAT5 phosphorylation, Western blot (in words) [3]: dose-dependent inhibition | solubility kinetic at 90 min [4]: 62 µM (≈ 16.8 µg/mL) | number of allergen-specific T cells [5]: not changed | number of eosinophils in BALF vs PBS-treated control [5]: substantially reduced | total number of leukocytes in BALF vs PBS control [5]: comparable | number of eosinophils recruited to the airways ([6]; 100 mg/kg IP, BALF 48 h): significantly reduced | eosinophil numbers in BALF over time ([6]; 100 mg/kg IP, as early as 24 h post injection, up to 72 h): decreased | inhibition of airway inflammation ([6]; single IP administration, 10, 50 or 100 mg/kg, BALF 48 h): dose-dependent manner | 1D NMR signals of the compound in the presence of the protein [7]: significantly broadened | 1D NMR signals of the compound in the presence of the protein [8]: no signal broadening | 1D NMR signals of the compound in the presence of the protein [9]: no signal broadening | airway inflammation [10]: reduce | skin severity scores [11]: lower

From PMC6584507 (Scientific Reports, 2019)
